Test in all cases: DTP human tumour cell line panel, 48 h
The test system of assay [1] is HL-60.
In assay [2] the test system is SK-MEL-2.
Assay [3] deals with UO-31.
For assay [4], the system named is HCT-15.
Assay [5] has as its system HOP-62.
Assay [6] deals with OVCAR-5.
Assay [7] concerns NCI-H23.
For assay [8], the system named is A549.
In assay [9] the test system is 786-0.
The test system of assay [10] is SNB-19.
In assay [11] the test system is SF-539.
For assay [12], the system named is NCI-H226.
Assay [13] relates to K562.
The subject of assay [14] is SNB-75.
Assay [15] deals with Malme-3M.
The test system of assay [16] is HT-29.
Assay [17] relates to SF-295.
The subject of assay [18] is OVCAR-3.
Assay [19] has as its system BT-549.

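Test compounds were applied to cells in 96-well plates for 48 hours at 5 doses. GI50: concentration for 50% inhibition of growth.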 Active and inactive are the calls of the source. No stated cut-off is given here; in the data, active = GI50 up to about 1.1 µM and inactive = higher.

For `Cc1ccc2nc(-c3ccc(-c4nc5ccc(C)cc5o4)c(O)c3)oc2c1`, the GI50 (in general, the concentration that inhibits growth by half) in [1] was > 100 µM (inactive); in [2], > 100 µM (inactive); in assay [3], > 100 µM (inactive); in assay [4], over 100 µM; in assay [5], > 100 µM (inactive); in [6], > 100 µM (inactive). Moreover, the GI50 in [7], in assay [8], in [9], in assay [10], in assay [11] and in assay [12] was > 100 µM (inactive) in each case. Moreover, the GI50 in assay [13] and in [14] was > 100 µM (inactive) throughout.
For the compound `Cc1occc(=O)c1O` [MALTOL], the GI50 in [1], in assay [15], in [16], in assay [2], in [17] and in assay [3] was > 100 µM (inactive) each time. The GI50 was 4.25 µM in [4]; > 100 µM (inactive) in [5]; > 100 µM (inactive) in assay [6]; > 100 µM (inactive) in [7]; > 100 µM (inactive) in assay [8]; > 100 µM (inactive) in [18]. The GI50 in assay [9], in assay [10], in assay [11], in [12], in assay [13] and in [14] was > 100 µM (inactive) in each case.
As to `Sc1nnc(C(c2ccccc2)c2ccccc2)[nH]1`, the GI50 in [1], in assay [15], in assay [16], in assay [2], in [17] and in assay [3] was > 100 µM (inactive) each time. Further, the GI50 in assay [4] was over 100 µM; in assay [5], > 100 µM (inactive); in assay [6], > 100 µM (inactive); in assay [7] it was > 100 µM (inactive); in assay [8], > 100 µM (inactive); in assay [18], > 100 µM (inactive). In addition, the GI50 in assay [9], in assay [10], in assay [11], in assay [12] and in assay [13] was > 100 µM (inactive) throughout.
For `COC(=O)/C=C/c1ccc2c(c1)CCC2`, the GI50 in assay [1] is 27.5 µM (inactive); in assay [15], 66.5 µM (inactive); in [16], 26.8 µM (inactive); in assay [2] it was 48 µM (inactive); in assay [17], 56 µM (inactive); in assay [3], 45 µM (inactive). For the same compound, the GI50 in assay [4] was 17.3 µM; in [5] it was > 100 µM (inactive); in assay [6], > 100 µM (inactive); in [7], 37.2 µM (inactive); in [8] it was 46.1 µM (inactive); in assay [18], 17.7 µM (inactive). Besides, the GI50 is 39.4 µM (inactive) in [9]; 48.5 µM (inactive) in assay [10]; 72.8 µM (inactive) in assay [11]; 30.8 µM (inactive) in assay [13]; 18.7 µM (inactive) in assay [14].
For the compound `C/C(=N\O)C1CC2C=C(C#N)C1N(Cc1ccccc1)C2` (centres undefined), the GI50 in assay [1] is > 100 µM (inactive); in assay [15], > 100 µM (inactive); in assay [16], > 100 µM (inactive); in assay [17] it was > 100 µM (inactive); in [3] it was > 100 µM (inactive); in assay [4], over 100 µM. The GI50 in [5], in assay [6], in assay [7], in assay [8], in [18] and in assay [9] was > 100 µM (inactive) each time. For the same compound, the GI50 in [10], in assay [11], in assay [12], in assay [13] and in [14] was > 100 µM (inactive) in each case.
For the compound `O=C(Oc1ccc(C(c2c(O)c3ccccc3oc2=O)c2c(O)c3ccccc3oc2=O)cc1)c1ccc(C(=O)c2ccccc2)cc1`, the GI50 in [16] is 17.7 µM (inactive); in [2], 17.8 µM (inactive); in assay [17], 22 µM (inactive); in assay [3], 17.8 µM (inactive); in [4], 37.2 µM; in assay [5], 24.1 µM (inactive). In addition, the GI50 in [6] was 19.4 µM (inactive); in [7], 18.5 µM (inactive); in assay [8] it was 25.3 µM (inactive); in assay [18], 18.3 µM (inactive); in [9], 33 µM (inactive); in assay [10], 17.4 µM (inactive). In addition, the GI50 is 17.3 µM (inactive) in assay [11], 10.6 µM (inactive) in [12], 22.1 µM (inactive) in assay [13] and 17.7 µM (inactive) in assay [14].
Consider `C=CC(C)(C)/C=C/c1ccc(O)cc1`, for which the GI50 was 37.6 µM (inactive) in assay [1]; 36.5 µM (inactive) in assay [19]; 36.8 µM (inactive) in assay [15]; 38.2 µM (inactive) in assay [16]; 23.4 µM (inactive) in [2]; 27 µM (inactive) in assay [17]. In addition, the 50% growth inhibitory concentration (GI50) in assay [4] is 39.1 µM; in assay [5] it was 58.2 µM (inactive); in assay [6], 46.6 µM (inactive); in [7], 31.8 µM (inactive); in assay [8] it was 29.1 µM (inactive); in assay [18], 28.8 µM (inactive). Also, the GI50 in assay [9] is 27.7 µM (inactive); in assay [10], 44.3 µM (inactive); in assay [11], 30.1 µM (inactive).
As for `Cc1ccc(/C(Cl)=C/C=C(C#N)C#N)cc1`, the GI50 in [1] was 2 µM (inactive); in assay [15] it was 3.85 µM (inactive); in assay [16] it was 2.59 µM (inactive); in assay [2], 6.32 µM (inactive); in assay [17], 13.3 µM (inactive); in assay [3], 4.58 µM (inactive). The GI50 in [4] was 2.1 µM; in assay [5], 1.98 µM (inactive); in assay [6], 2.6 µM (inactive); in assay [7], 1.76 µM (inactive); in [8] it was 21.9 µM (inactive); in [18], 1.93 µM (inactive). In addition, the GI50 was 1.88 µM (inactive) in [9]; 7.62 µM (inactive) in assay [10]; 2.64 µM (inactive) in [11]; 4.39 µM (inactive) in [12]; 0.817 µM (active) in assay [13]; 13.2 µM (inactive) in assay [14].
Consider `C/C(=N\Nc1nc2ccccc2[nH]1)c1ccncn1`, for which the GI50 in assay [1] is 0.0183 µM (active); in assay [15] it was 0.138 µM (active); in assay [16], 0.0818 µM (active); in assay [2], 0.617 µM (active); in [17], 0.115 µM (active); in [3], 0.114 µM (active). For the same compound, the GI50 was 0.161 µM in assay [4]; 0.0951 µM (active) in assay [5]; 4.11 µM (inactive) in [6]; 0.0973 µM (active) in [7]; 0.151 µM (active) in assay [8]; 0.25 µM (active) in assay [18]. Besides, the GI50 in assay [9] is 0.0693 µM (active); in [10] it was 0.246 µM (active); in assay [11], 0.0394 µM (active); in assay [12], 0.0817 µM (active); in assay [13], 0.681 µM (active); in [14] it was 0.352 µM (active).
With `CCOP(=O)(C=C=C(C)C)OCC`, the GI50 was 94.6 µM (inactive) in assay [1]; > 100 µM (inactive) in assay [15]; > 100 µM (inactive) in assay [16]; > 100 µM (inactive) in assay [2]; > 100 µM (inactive) in assay [17]; over 100 µM in [4]. Moreover, the GI50 in assay [5], in assay [6], in [7], in assay [8], in [18] and in [9] was > 100 µM (inactive) in each case. For the same compound, the GI50 in assay [10], in assay [11], in assay [12], in assay [13] and in assay [14] was > 100 µM (inactive) throughout.
As to `CC1=C(C)CC2(C=C(C(C)(C)C)C(=O)C(C(C)(C)C)=C2)SC1`, the GI50 in assay [1] is 18.3 µM (inactive); in assay [15] it was 14.2 µM (inactive); in assay [16] it was 19.9 µM (inactive); in assay [2] it was 12.3 µM (inactive); in [17], 16 µM (inactive); in assay [3], 15.7 µM (inactive). Besides, the GI50 in assay [5] is 19.3 µM (inactive); in [6] it was 20.1 µM (inactive); in [7], 18.5 µM (inactive); in assay [8], 21.9 µM (inactive); in [18] it was 17.9 µM (inactive); in [9] it was 17.9 µM (inactive). Besides, the GI50 in assay [10] is 17.3 µM (inactive); in [11], 18.3 µM (inactive); in assay [12], 17 µM (inactive); in assay [13] it was 30.3 µM (inactive); in [14], 16.1 µM (inactive).
For `COc1ccc(-c2nc(-c3cnccn3)n(COCCO)n2)cc1`, the GI50 in [1] is > 100 µM (inactive); in assay [19] it was > 100 µM (inactive); in [16] it was > 100 µM (inactive); in [17], > 100 µM (inactive); in assay [3], > 100 µM (inactive); in assay [4], over 100 µM. The GI50 in assay [5], in assay [6], in assay [7], in assay [8], in assay [18] and in [9] was > 100 µM (inactive) each time. Also, the GI50 in assay [10], in [11] and in assay [13] was > 100 µM (inactive) in each case.

(Values after ChEMBL document CHEMBL1201862, “PubChem BioAssay data set” (2004).)
